From US10316056B2, “Chemical compounds and use thereof for improving muscular quality” (BIOPHYTIS, priority 2014, dated 2019)

Experiments:
[1] = system: myostatin gene expression in C2C12 cells; experiment: Inhibition of myostatin expression in C2C12 cells (qPCR); format: cell-based; conditions: Mus musculus, percentage myostatin gene expression in cells in contact with the compounds related to control cells, C2C12, 6 h
How it was run: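 C2C12 myoblasts differentiated to myotubes for 5 days in 2% serum, then treated 6 h with compounds in serum-free, low-glucose (1 g/l) DMEM; IGF-1 100 ng/ml as reference. Myostatin mRNA quantified by RT-qPCR, expressed relative to untreated control as R=2^-ΔΔCt.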

[2] = system: Soleus muscle of C57BL/6 mice subjected to a high-fat diet; experiment: Mice subjected to a high-fat diet: weight and amount of proteins of the Soleus muscle; format: in vivo, C57BL/6J mice; conditions: 5 mg/kg orally; high-fat diet for 6 weeks; compared with the control group; FIG. 3B
Description: The 20E as comparative compound and the compounds according to the invention (Nos. 51 and 93) were administered orally, at a dose of 5 mg/kg of body weight, to 12-week-old C57BL/6J mice subjected to a high-fat diet for 6 weeks. The effect of the compounds on the weight and the amount of proteins of the Soleus muscle and also the transcripts of genes involved in myogenesis were evaluated.
The amount of proteins is determined by first lysing the muscles sampled in a 0.1N NaOH solution with the FastPrep technique. The proteins are quantified by means of a colorimetric assay derived from the Lowry method.
The in vivo study is carried out by evaluating the effect of 20E as comparative compound and of the molecules according to the invention (Nos. 51 and 93) administered orally, at a dose of 5 mg/kg of body weight, to C57BL/6 mice subjected to a high-fat diet for 6 weeks. The effect of the molecules on the weight and the amount of proteins of the Soleus muscle and also the transcripts of genes involved in myogenesis were evaluated.

Row | Compound | mrna remaining at 10 µM [1] | amount of proteins of the Soleus muscle [2]
1 | CCC(CC)C(=O)N(CCOC)C(C)[C@H]1CC[C@@]2(O)C3=CC(=O)[C@@H]4C[C@@H](O)[C@@H](O)C[C@]4(C)C3CC[C@]12C (stereo partly drawn) [Compound 51, 2-ethyl-N-(2-methoxyethyl)-N-[1-[(2S,3R,5R,10R,13R,14S,17S)-2,3,14-trihydroxy-10,13-dimethyl-6-oxo-2,3,4,5,9,11,12,15,16,17-decahydro-1H-cyclopenta[a]phenanthren-17-yl]ethyl]butanamide] | < 70% | 
2 | CCSCC(=O)[C@H]1CC[C@@]2(O)C3=CC(=O)[C@@H]4C[C@@H](O)[C@@H](O)C[C@]4(C)C3CC[C@]12C (stereo partly drawn) [Compound 93, (2S,3R,5R,10R,13R,14S,17S)-17-(2-ethylsulfanylacetyl)-2,3,14-trihydroxy-10,13-dimethyl-2,3,4,5,9,11,12,15,16,17-decahydro-1H-cyclopenta[a]phenanthren-6-one] | < 70% | significant increase
